# In patent US11207331B2, “Agents, compositions and methods for enhancing neurological function” (University of Southern California, priority 2007, dated 2021):
# Entries after “also recorded” stand apart in the source; their conditions may differ.
# How the values were obtained:
# [1] = system: three month old male 3×TgAD mouse hippocampus; assay: Flow cytometry of BrdU labeled cells 24 hours after subcutaneous or transdermal THP; type: in vivo
# Protocol: Flow cytometry assay detected total BrdU labeled cells 24 hours following THP administration via (A) subcutaneous and (B) transdermal routes. […] BrdU (100 mg/kg) was administered by intraperitoneal injection one hour after THP administration. Transdermal gel THP dose-response for 5, 10, and 50 mg/kg (FIG. 21B) was compared to 0 mg/kg control vehicle (negative control) and subcutaneous injection of 10 mg/kg (positive control) (FIG. 21A). […] Immunoblots of proliferating cell nuclear antigen (PCNA), an S-phase marker and cyclin dependent kinase 1 (CDK1/cdc2), an M-phase marker, are shown in FIGS. 21C and 21D, respectively. Hippocampus protein expression of PCNA and CDK1/cdc2 was normalized to β-tubulin loading control and compared relative to the vehicle control by immunoblot. […] The data were analyzed by one way ANOVA followed by a t test (two samples assuming equal variance) vs. vehicle. Data are presented as the mean±SEM, n=5, *=P<0.05, and **=P<0.01.
# [2] = system: hippocampal neural cells; assay: Mitotic appearance (doublet cell body) of cultured hippocampal neural cells; type: cell-based, rat
# Protocol: Hippocampal neural cells were obtained from an embryonic day 18 rat hippocampus. The samples contained approximately 12,000 neurons/sample. The sample was 95% neuronal. No selection for neuronal subtypes was conducted. Hippocampal neurons were treated with 3α-hydroxy-5α-pregnan-20-one (THP). 3α-hydroxy-5α-pregnan-20-one (THP) was added to two samples containing hippocampal neural cells at a concentration of either 10 nanomolar (nM) and 100 nanomolar (nM). The cells were incubated for 24 hrs at 37° C. Neurons were grown in a defined medium, Neurobasal+B27 supplement in the absence (control) or presence of THP or other test molecule (experimental). The samples with added THP were compared with a control sample containing only hippocampal neural cells. Changes in the mitotic appearance of the neural cells were observed. A mitotic appearance of a particular neural cell is defined as a doublet form in the cell body of the neural cell. The doublet form is indicative of a neural cell undergoing mitosis.
# The experiment described above was repeated only THP was added to three samples containing hippocampal neural cells at a concentration of 100 nanomolar (nM), 250 nM and 500 nM. The samples with added THP were compared with a control sample containing only hippocampal neural cells. […] Data are expressed as percent of mean+SEM,**p<0.01, ***p<. 001.
# [3] = system: CNPase; assay: CNPase expression (myelination marker); type: in vivo, mouse
# Protocol: Further studies were conducted using a dosing regime of once a week for six months administered subcutaneously. Three and six months old 3×Tg-AD and age-matched non-Tg mice were chosen for the experiments, since AD pathology (Aβ) starts development at 3-month and abundant accumulation at 6-months. Allopregnanolone was subcutaneously (s.c.) administrated with 10 mg/kg once per week for 6 months. For neurogenesis and neurosurvival study, BrdU, IdU and CIdU were intraperitoneal (i.p.) injected at the first 5 days, mid 5 days and 5 days before sacrifice during 6-month treatment. After 6 months of allopregnanolone treatment, mice, at 9- and 12-month old, were sacrificed.
# Immunofluorescent staining shown the immunoreactivity increased in CA1, entorhinal cortex, and primary somatosensory cortex.
# [4] = system: mouse dentate gyrus subgranular zone (SGZ); assay: Unbiased stereology of BrdU-positive cells in dentate gyrus subgranular zone; type: in vivo; settings: for cell proliferation (normal BrdU+ cells) / pyknotic BrdU+ cell count after THP treatment: 24 hr; for pyknotic BrdU+ cell count after THP treatment: 6-months, 10 mg/kg s.c.
# Protocol: Mice of each genotype and age received a subcutaneous (s.c.) injection of THP at a concentration of 10 mg/kg body weight (BW), an optimal dose of THP-[…] based on our previous studies. One hour after THP injection, mice were intraperitoneally (i.p.) injected with 100 mg/kg BW bromodeoxyuridine (BrdU). Two experimental paradigms were used: 1) THP treatment for behavior and cell survival assessment, in which animals received a single shot of THP/vehicle, followed by a 7-day neurogenesis and migration phase, followed by a 5-day trace-conditioning test followed 9 days later by a 1-day memory test, and scarified 21 days after a single THP injection at which time FACS analysis of BrdU positive cells was performed to assess cell survival; 2).
# Acute THP treatment for cell proliferation assessment, in which animals received a single injection of THP/vehicle and were sacrificed 24 hr later followed by quantitative unbiased stereology of BrdU positive cells.
# Mice were sacrificed 24 h after THP administration for cell proliferation assessment or at the end of memory test for cell survival assessment. On the day of sacrifice mice were deeply anesthetized with a combination of ketamine (100 mg/kg) and xylazine (10 mg/kg), and perfused with PBS. Brains were dissected into two hemispheres, and one hemisphere was fixed immediately in cold 4% paraformaldehyde and was used for either stereological analysis (cell proliferation) or FACS analysis (cell survival).
# The fixed hemispheres from cell proliferation assessment experiment were sectioned into a series of 40 μm coronal sections and every sixth section in the series was processed for BrdU histolabeling by NeuroScience Associates (Knoxville, Tenn.). Prior to labeling, all slides were coded and the codes were not broken until analyses were completed. The number of BrdU labeled cells was determined by unbiased stereology (optical dissector). Systematic samplings of unbiased counting frames of 50 μm on a side with a 200 μm matrix spacing were produced using a semiautomatic stereology system (Zeiss Axiovert 200M fluorescent microscope as part of the 3iMarianas digital microscopy and a 60×SPlan apochromat oil objective (1.4 numerical aperture). Positive cells that intersected the uppermost focal (exclusion) plane and those that intersected the exclusion boundaries of the unbiased sampling frame were excluded from analysis. Cells that met analysis criteria through a 20 μm axial distance were counted according to the optical dissector principle. The granule cell layer reference volume was determined by summing the traced SGZ, granule cell areas for each section multiplied by the distance between sections sampled. The mean granule cell number per dissector volume was multiplied by the reference volume to estimate the total granule cell number. The stereologically determined number of BrdU-positive cells was related to the granule cell layer sectional volume and multiplied by the reference volume to estimate the total number of BrdU-positive cells.
# Total BrdU labeled cells were quantified for 3, 6, 9, and 12 months non-Tg and 3×TgAD male mice. The serial brain sections were collected to analyze the effects of THP on BrdU incorporation by unbiased stereological analysis. Data are represented as mean±SEM (n≥4 in each group). […] PCNA, an S-phase cell cycle marker, was increased in THP compared to vehicle control in 3×TgAD mice in three month (FIG. 12B) and six month (FIG. 12C) mice as shown by immunoblot.
# To decipher the THP effect in neurogenesis, cell proliferation assessment experiments were conducted. Following animal sacrifice and brain section staining, unbiased stereology was conducted in both non-Tg and 3×TgAD mice at three different ages.
compound,measurement,setting,value
"CC(=O)[C@H]1CC[C@H]2[C@@H]3CC[C@H]4C[C@H](O)CC[C@]4(C)[C@H]3CC[C@]12C [THP, 3α-hydroxy-5α-pregnan-20-one]",BrdU cell numbers vs vehicle,[1]; 10 mg/kg dose,significantly increases BrdU cell numbers
same,optimal dose to significantly increase BrdU cell numbers,[1]; subcutaneous and transdermal routes,10 mg/kg
same,fold increase in the mitotic phenotype of the neural cells vs control,"[2]; 10 nM or 100 nM THP, 24 hrs",~2 fold
same,concentration with greatest induction of the mitotic phenotype,"[2]; 100, 250, 500 nM tested",500 nm
same,fold increase in the mitotic phenotype of the neural cells vs control,"[2]; 100, 250 and 500 nM THP",2-3 fold
same,"CNPase expression, Western blot",[3]; 9-month nonTg mice and 3×TgAD mice,increased CNPase expression
same,"CNPase expression, Western blot",[3]; 12-month 3×TgAD mice,trended towards an increase
same,"CNPase expression, Western blot",[3]; 12-month non-Tg mice,no significant difference
same,increase in BrdU incorporation vs vehicle control group,"[4]; 3×TgAD mice, 3 months, 10 mg/kg BW s.c., 24 hours",55+18%
same,cell proliferation (normal BrdU+ cells),"[4]; 3×TgAD mice, 6, 9, 12 months",no significant effect in cell proliferation
same,pyknotic BrdU+ cell count after THP treatment,[4]; 3×TgAD mice,48.0±48.00
same,neurogenic deficit of 3×TgAD mice vs non-Tg (total BrdU cells),"[4]; 3×TgAD mice, one s.c. dose, 24 hours",restored proliferation to that of normal nontransgenic mice; also recorded: reversed the neurogenic deficit of the 3×TgAD mouse SGZ and restored normal levels of neurogenesis
same,"pyknotic cell population, vehicle vs THP","[4]; non-Tg and 3×TgAD mice, 9- and 12-months",no difference
same,cell proliferation (normal BrdU+ cells),"[4]; non-Tg mice, 6, 9, 12 months",no effect on cell proliferation
same,pyknotic BrdU+ cell count after THP treatment,[4]; non-Tg mice,576.0±185.49
